Data reported in ChEMBL document CHEMBL1201862, “PubChem BioAssay data set” (2004).
Calls of active or inactive are those of the source.

Legend:
Coagulation factor XII = target: T1, Coagulation factor XII (Homo sapiens, UniProt P00748); format: functional;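 note: activated factor XIIa alpha cleaving a fluorogenic AMC peptide substrate; inhibitor potency from loss of enzyme activity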
T1 sequence (P00748 whole entry): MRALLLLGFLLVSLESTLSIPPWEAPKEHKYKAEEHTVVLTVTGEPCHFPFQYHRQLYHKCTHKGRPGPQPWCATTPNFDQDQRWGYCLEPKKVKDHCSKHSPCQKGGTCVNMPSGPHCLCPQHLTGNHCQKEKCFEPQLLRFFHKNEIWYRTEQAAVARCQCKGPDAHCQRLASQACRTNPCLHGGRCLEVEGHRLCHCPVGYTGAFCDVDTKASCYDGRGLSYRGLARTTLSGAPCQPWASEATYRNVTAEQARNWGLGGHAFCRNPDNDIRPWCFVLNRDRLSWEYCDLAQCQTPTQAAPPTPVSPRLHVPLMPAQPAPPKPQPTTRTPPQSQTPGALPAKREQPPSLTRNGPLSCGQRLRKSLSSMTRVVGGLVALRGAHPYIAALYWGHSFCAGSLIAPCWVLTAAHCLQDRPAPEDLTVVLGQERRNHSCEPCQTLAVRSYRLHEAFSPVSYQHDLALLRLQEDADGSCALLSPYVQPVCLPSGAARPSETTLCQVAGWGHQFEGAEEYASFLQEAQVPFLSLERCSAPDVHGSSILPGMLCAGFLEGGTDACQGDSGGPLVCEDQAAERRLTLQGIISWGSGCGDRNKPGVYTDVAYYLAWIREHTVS

[1] = target: T2, Long-chain-fatty-acid--AMP ligase FadD28 (Mycobacterium tuberculosis, UniProt P9WQ59); assay: Fluorescence polarization aasay to screen for inhibitors that compete for the binding of FadD28 to a bisubstrate Measured in Biochemical System Using Plate Reader - 2147-01_Inhibitor_Dose_CherryPick_Activity.; format: functional, Mycobacterium tuberculosis H37Rv
T2 sequence (P9WQ59 whole entry): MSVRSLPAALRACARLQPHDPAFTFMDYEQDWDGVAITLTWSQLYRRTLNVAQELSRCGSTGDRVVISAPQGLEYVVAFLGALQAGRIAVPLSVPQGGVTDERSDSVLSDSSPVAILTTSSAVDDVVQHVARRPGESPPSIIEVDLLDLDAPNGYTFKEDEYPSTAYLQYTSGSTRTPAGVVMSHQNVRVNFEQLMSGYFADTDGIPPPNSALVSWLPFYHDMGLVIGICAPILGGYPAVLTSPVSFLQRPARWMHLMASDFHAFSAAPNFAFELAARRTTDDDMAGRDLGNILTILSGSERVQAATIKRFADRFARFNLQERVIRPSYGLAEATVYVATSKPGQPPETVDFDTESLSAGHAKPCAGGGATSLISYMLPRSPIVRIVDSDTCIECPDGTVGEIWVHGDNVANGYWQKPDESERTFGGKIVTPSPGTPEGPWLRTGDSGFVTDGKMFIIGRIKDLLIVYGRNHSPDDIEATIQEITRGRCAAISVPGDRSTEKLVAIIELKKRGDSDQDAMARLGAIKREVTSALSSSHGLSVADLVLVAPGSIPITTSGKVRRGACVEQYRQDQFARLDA

[2] = target: DNA dC->dU-editing enzyme APOBEC-3G (Homo sapiens, UniProt Q9HC16); assay: Dose Response confirmation of small molecule APOBEC3G DNA Deaminase Inhibitors via a fluorescence-based single-stranded DNA deaminase assay. [Related pubchem assays (depositor defined):AID493012, AID493028]; format: functional
[3] = target: DNA dC->dU-editing enzyme APOBEC-3A (Homo sapiens, UniProt P31941); assay: A3A deaminase inhibition for selectivity – biochemical, dose response (AID 504722); format: functional
[4] = target: Eukaryotic translation initiation factor 4E (Mus musculus, UniProt P63073); assay: blockers of eIF4G binding by eIF4E – biochemical, TR-FRET, dose response (AID 855); format: functional;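 note: potency for disrupting eIF4E binding to eIF4GI seen as loss of FRET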
[5] = target: T3, Rac GTPase-activating protein 1 (Homo sapiens, UniProt Q9H0H5); assay: blockers of MgcRacGAP-driven Rac1 GTP hydrolysis – biochemical, ADP Hunter fluorescence, primary and confirmatory, confirmation (AID 624330); format: functional
T3 sequence (Q9H0H5 whole entry): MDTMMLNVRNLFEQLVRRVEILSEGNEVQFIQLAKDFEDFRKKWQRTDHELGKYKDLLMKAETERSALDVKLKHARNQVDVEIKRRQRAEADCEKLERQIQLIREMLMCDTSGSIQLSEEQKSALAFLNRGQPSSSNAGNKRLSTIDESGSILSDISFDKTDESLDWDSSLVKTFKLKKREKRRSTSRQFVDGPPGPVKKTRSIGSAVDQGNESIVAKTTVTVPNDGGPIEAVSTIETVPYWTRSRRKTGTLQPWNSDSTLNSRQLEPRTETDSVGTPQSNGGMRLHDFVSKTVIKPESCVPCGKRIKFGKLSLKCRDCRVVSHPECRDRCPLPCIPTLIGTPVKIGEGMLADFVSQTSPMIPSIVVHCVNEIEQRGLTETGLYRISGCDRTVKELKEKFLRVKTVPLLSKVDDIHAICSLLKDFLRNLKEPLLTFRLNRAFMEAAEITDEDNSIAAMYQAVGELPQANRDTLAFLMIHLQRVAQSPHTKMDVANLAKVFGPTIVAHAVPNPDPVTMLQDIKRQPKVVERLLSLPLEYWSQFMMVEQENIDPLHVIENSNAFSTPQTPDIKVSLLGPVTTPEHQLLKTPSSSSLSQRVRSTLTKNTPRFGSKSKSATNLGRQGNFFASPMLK

[6] = target: T4, Replicative DNA helicase DnaB (Mycobacterium tuberculosis, UniProt P9WMR3); assay: DnaB intein splicing inhibitors, dose response, biochemical, cell-free fluorescence (AID 449749); format: functional
T4 sequence (P9WMR3 whole entry): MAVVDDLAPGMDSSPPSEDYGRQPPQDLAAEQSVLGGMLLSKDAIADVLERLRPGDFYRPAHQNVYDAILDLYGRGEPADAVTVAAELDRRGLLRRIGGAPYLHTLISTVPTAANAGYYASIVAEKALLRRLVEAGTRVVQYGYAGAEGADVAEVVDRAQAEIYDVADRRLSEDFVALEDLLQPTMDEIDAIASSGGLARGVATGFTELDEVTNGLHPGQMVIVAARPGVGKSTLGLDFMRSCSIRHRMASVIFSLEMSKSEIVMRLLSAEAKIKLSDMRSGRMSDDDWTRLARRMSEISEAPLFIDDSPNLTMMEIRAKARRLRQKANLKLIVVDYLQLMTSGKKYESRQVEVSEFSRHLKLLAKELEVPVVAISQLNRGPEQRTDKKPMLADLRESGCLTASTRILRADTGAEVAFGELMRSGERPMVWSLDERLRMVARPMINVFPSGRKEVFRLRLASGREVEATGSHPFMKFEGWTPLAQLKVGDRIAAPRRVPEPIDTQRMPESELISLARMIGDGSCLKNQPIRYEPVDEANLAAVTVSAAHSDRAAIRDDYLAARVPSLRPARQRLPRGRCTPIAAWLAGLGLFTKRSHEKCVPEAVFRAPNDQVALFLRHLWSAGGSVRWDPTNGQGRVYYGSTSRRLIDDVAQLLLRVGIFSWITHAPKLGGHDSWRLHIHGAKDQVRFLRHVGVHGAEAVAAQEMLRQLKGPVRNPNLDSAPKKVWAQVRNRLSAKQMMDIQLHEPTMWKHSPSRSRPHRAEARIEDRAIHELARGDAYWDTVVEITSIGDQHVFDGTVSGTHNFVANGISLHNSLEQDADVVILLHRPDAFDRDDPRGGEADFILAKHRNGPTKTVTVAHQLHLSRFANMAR

Protein RecA = target: T5, Protein RecA (Mycobacterium tuberculosis, UniProt P9WHJ3); assay: Fluorescence Cell-Free Homogeneous Dose Retest to Identify Inhibitors of RecA-Intein Splicing Activity. [Related pubchem assays (depositor defined):AID2097, AID2223, AID489010, AID492950]; format: functional
T5 sequence (P9WHJ3 whole entry): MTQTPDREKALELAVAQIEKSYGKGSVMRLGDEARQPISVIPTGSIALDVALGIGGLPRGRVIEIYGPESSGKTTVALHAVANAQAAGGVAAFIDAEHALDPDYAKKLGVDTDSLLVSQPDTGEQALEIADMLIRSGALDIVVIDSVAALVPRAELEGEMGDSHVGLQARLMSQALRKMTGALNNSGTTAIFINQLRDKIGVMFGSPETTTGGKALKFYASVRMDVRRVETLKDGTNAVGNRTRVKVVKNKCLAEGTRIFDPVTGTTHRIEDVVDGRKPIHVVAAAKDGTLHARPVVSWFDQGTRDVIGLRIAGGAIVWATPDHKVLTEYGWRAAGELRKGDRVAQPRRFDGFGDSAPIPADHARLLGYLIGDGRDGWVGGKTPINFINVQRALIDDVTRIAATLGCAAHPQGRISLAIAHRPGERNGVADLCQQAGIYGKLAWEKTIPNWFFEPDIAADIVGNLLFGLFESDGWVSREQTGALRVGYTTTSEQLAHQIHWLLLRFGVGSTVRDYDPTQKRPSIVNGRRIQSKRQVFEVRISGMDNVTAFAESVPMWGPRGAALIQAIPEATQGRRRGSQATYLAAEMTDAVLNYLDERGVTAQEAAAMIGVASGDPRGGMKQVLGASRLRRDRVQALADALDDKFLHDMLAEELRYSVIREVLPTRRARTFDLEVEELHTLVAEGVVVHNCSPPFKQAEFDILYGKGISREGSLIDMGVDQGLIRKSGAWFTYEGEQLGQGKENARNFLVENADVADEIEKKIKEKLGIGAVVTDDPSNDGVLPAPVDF

Nonstructural protein 1 = Nonstructural protein 1 (Influenza A virus, UniProt Q194T2); format: functional, Influenza A virus (A/California/07/2009(H1N1))
[7] = target: Dual specificity tyrosine-phosphorylation-regulated kinase 1A (Rattus norvegicus, UniProt Q63470); format: biochemical, Homo sapiens
[8] = target: T6, Heat shock factor protein 1 (Mus musculus, UniProt P38532); assay: enhancement of HSF1-driven luciferase signal – cell-based, NIH3T3, luminescence, dose retest, confirmation (AID 435004); format: functional;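 note: stress induced by proteasome inhibitor MG132 added 30 min after compound; luciferase reporter driven by HSF1 response element in NIH3T3 cells; actives raise luminescence as potentiators of the MG132 stress response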
T6 sequence (P38532 whole entry): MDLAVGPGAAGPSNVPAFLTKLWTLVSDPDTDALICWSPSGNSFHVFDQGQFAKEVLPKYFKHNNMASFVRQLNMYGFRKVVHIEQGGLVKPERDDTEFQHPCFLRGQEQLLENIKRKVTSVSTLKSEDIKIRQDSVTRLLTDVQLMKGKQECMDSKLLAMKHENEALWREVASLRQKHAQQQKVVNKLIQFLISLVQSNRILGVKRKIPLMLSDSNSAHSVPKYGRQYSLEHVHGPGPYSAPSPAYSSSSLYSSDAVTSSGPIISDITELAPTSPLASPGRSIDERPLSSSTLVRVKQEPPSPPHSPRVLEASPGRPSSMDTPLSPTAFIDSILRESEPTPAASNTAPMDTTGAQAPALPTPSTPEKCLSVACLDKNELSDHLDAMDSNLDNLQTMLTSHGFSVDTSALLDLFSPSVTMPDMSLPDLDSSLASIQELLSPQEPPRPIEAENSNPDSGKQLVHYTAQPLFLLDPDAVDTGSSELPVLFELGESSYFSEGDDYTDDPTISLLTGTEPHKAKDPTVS

Trypsin = Trypsin (Sus scrofa, UniProt P00761); assay: trypsin protease activity blockade – biochemical, quenched peptide fluorescence, cherry-pick, selectivity assay for Rce1 protease inhibitor project, dose response (AID 488789)
[9] = target: Peroxisome proliferator-activated receptor gamma/Nuclear receptor coactivator 1 (Homo sapiens, UniProt P37231); format: functional;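 note: agonist potency as compounds enhance coactivator SRC-1 recruitment to PPARgamma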
[10] = target: Peroxisome proliferator-activated receptor gamma/Nuclear receptor coactivator 3 (Homo sapiens, UniProt P37231); format: functional;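 note: agonist potency for raising coactivator recruitment to the receptor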
[11] = target: Peroxisome proliferator-activated receptor gamma/Nuclear receptor coactivator 2 (Homo sapiens, UniProt P37231); format: functional;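 note: agonist potency for raising coactivator recruitment to the receptor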
Peroxisome proliferator-activated receptor gamma/Nuclear receptor coactivator 2, sequence (P37231 whole entry): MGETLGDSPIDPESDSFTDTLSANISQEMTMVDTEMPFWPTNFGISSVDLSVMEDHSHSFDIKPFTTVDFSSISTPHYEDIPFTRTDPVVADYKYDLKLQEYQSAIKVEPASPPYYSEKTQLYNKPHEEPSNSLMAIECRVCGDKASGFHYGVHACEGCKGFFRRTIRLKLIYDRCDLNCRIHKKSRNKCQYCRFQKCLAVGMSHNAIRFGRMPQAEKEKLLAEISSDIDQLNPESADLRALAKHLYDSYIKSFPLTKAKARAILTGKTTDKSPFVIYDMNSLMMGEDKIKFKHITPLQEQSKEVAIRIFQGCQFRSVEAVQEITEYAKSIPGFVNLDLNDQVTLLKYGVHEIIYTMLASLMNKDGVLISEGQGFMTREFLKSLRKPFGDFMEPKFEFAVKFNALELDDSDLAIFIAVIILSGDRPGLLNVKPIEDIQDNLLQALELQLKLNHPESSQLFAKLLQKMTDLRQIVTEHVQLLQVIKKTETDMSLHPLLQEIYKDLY
Peroxisome proliferator-activated receptor gamma/Nuclear receptor coactivator 2, sequence (Q15596 whole entry, further chain): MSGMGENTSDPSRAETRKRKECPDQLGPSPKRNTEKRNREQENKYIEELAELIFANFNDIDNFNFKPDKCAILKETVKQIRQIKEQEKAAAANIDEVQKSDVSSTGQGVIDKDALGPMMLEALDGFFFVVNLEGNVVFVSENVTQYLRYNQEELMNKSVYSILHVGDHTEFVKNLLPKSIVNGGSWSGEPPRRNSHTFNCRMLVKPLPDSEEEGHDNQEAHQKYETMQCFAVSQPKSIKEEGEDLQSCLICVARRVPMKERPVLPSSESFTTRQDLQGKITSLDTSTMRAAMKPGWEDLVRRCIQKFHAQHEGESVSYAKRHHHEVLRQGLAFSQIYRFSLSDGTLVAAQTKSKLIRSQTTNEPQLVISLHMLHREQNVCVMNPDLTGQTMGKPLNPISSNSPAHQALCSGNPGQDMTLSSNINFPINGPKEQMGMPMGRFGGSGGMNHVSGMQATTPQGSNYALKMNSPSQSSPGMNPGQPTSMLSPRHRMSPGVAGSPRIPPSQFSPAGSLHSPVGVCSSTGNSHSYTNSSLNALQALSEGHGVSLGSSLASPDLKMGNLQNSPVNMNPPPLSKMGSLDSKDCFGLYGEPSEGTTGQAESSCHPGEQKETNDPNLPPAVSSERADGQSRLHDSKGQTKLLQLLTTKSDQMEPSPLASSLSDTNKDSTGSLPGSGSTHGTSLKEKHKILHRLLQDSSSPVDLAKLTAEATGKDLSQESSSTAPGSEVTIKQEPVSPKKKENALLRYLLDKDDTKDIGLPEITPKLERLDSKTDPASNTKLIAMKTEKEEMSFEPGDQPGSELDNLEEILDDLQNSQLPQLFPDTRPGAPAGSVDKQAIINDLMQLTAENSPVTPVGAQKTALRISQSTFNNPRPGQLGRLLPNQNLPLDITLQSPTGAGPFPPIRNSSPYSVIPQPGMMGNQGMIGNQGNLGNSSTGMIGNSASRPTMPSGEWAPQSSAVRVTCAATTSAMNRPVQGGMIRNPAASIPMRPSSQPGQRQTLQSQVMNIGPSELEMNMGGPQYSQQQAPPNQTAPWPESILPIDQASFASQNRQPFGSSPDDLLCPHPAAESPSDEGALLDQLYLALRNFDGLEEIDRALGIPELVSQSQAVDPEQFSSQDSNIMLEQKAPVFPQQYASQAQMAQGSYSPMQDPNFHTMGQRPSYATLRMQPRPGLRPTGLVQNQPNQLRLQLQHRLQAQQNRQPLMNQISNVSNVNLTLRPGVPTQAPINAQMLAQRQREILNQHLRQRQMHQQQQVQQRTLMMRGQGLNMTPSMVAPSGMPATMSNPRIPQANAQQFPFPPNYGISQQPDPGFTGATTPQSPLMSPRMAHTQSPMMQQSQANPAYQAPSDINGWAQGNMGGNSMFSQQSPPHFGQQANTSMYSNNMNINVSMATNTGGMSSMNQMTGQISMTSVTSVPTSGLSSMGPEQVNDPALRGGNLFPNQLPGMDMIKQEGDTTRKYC

DNA dC->dU-editing enzyme APOBEC-3A, sequence (P31941 whole entry): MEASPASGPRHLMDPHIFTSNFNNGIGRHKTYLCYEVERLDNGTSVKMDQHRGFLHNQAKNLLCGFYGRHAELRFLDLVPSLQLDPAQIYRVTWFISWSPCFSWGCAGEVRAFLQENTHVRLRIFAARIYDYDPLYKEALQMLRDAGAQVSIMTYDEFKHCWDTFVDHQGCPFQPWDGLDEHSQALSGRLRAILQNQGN
DNA dC->dU-editing enzyme APOBEC-3G, sequence (Q9HC16 whole entry): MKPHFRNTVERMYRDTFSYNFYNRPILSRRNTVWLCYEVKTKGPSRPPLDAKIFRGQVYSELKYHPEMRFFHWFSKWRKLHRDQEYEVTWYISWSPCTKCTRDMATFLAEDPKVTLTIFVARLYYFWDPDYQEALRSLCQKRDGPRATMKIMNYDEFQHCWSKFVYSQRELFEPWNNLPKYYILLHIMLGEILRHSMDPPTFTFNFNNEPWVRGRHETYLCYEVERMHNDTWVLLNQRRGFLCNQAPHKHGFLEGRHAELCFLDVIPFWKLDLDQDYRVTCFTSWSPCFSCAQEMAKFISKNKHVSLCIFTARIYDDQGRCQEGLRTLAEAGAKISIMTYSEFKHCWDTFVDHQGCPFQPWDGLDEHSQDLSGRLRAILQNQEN
Eukaryotic translation initiation factor 4E, sequence (P63073 whole entry): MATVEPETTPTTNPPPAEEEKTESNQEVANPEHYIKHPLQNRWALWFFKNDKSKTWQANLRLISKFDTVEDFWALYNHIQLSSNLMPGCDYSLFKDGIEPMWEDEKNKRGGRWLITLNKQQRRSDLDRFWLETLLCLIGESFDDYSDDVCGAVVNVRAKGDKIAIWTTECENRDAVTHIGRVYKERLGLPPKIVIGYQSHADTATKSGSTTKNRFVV
Nonstructural protein 1, sequence (Q194T2 whole entry): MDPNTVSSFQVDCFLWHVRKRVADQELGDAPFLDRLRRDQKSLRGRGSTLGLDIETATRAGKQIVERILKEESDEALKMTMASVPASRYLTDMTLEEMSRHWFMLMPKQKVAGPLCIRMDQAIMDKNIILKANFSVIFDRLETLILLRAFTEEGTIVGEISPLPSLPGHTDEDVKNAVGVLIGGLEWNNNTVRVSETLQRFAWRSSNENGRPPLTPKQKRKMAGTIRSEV
Trypsin, sequence (P00761 whole entry): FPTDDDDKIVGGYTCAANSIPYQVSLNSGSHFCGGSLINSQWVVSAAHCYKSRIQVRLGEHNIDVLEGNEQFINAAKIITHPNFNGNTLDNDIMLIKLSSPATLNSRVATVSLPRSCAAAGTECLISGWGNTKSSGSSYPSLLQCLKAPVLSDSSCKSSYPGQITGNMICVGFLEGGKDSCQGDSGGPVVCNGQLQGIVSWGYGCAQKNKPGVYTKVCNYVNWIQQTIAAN

For `Cc1ccc(C2=NN(S(=O)(=O)c3ccccc3)C(c3ccccc3O)C2)cc1` (stereo unspecified), which IC50 (Coagulation factor XII) is on record?
Its IC50 is > 50 µM (inactive).

What about the AC50 [1] of the same molecule?
Its AC50 is > 100 µM (inactive).

`CCn1c(=O)c2c3c(sc2n2c(=S)[nH]nc12)CCC3` was tested. Which IC50 [2] did it give?
The IC50 was 4.78 µM (active).

What about the IC50 [3] of the same molecule?
The IC50 was > 100 µM (inactive).

And the IC50 [4]?
Its IC50 is > 64 µM (inactive).

And the IC50 [5]?
The IC50 was 26.4 µM (active).

With `CCOc1ccc(N(CC(=O)Nc2ccc3c(c2)OCCO3)S(=O)(=O)c2c(C)noc2C)cc1` as the molecule, how does the IC50 (Coagulation factor XII) read?
Its IC50 is > 50 µM (inactive).

What does the source list for `O=C1c2ccccc2-c2onc3ccc(N4CCCC4)c1c23`?
AC50 [6]: > 380 µM (inactive); EC50 (Protein RecA): 0.606 µM (active); IC50 (Nonstructural protein 1): 23.6 µM (active); AC50 [7]: 1.67 µM (active); AC50 [1]: 15.1 µM (active); IC50 [4]: 50 µM (inactive); EC50 [8]: > 260 µM (inactive)

For `O=C(COC(=O)COc1ccccc1Cl)Nc1ccccc1OC(F)F`, which IC50 (Coagulation factor XII) is on record?
Its IC50 is > 50 µM (inactive).

`COc1ccc2oc(-c3ccccc3)c(C(=O)N3CCOCC3)c2c1` was tested. Which AC50 (Trypsin) did it give?
The AC50 was 4.55 µM (active).

Which results are given for `CC(C)(C)c1cc(C(=S)N2CCN(CCO)CC2)cc(C(C)(C)C)c1O`?
IC50 [2]: 13.4 µM (active); IC50 [3]: > 100 µM (inactive); EC50 [9]: > 79.4 µM (not active); EC50 [10]: > 79.4 µM (not active); EC50 [11]: > 79.4 µM (not active)
